The text below walks through data of PubChem BioAssay (NCI).

Values joined by “and” are separate entries in the source; they are usually repeats but may differ in a detail not shown here. Equal entries are not always repeated.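 Five compound concentrations were applied to cells in 96-well plates for 48 hours; endpoints were derived by simple linear interpolation of the resulting dose-response curve. GI50: concentration for 50% inhibition of growth. The concentration for full growth arrest is given as TGI.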 *1 amine or outer side, *2 acyl side, *3 side chain or, on linkers, in order; H or OH if unused. Where a SMILES comes first, the peptide text is derived from it. Bridges are numbered along the chain shown (N, C = ends). [ ]: non-standard residue; d: D form. The star is where a group is joined. Phe(3,5-F2) = N[C@@H](Cc1cc(F)cc(F)c1)C(=O)O; Pro(4R-Me) = C[C@H]1CN[C@H](C(=O)O)C1; aThr = C[C@H](O)[C@H](N)C(=O)O; Pip = O=C(O)[C@@H]1CCCCN1; X10 = Fc1cc(C2CC2)ccc1N*; Abu = CC[C@H](N)C(=O)O; CO = O=C([*:1])[*:2]

The assay concerns MDA-MB-468 breast. The assay is described as follows: inhibition of tumour cell growth, NCI panel, 48 h.
Regarding `Cc1cc(Nc2ncc(F)c(N[C@H]3[C@@H](C(N)=O)[C@@H]4C=C[C@H]3C4)n2)ccc1N1CCN(C)CC1`, the GI50 is under 16.1 nM and the TGI came out at 1.26 µM.

On to `CC[C@@H]1NC(=O)[C@@H]2CCCCN2C(=O)[C@@H]2CCCN2C(=O)[C@@H](NC(=O)[C@H](Cc2cc(F)cc(F)c2)NC(=O)Nc2ccc(C3CC3)cc2F)[C@H](C)OC(=O)[C@@H]2C[C@@H](C)CN2C1=O` ({X10-CO}-[Phe(3,5-F2)][aThr]P[Pip][Abu][Pro(4R-Me)]; ester 2-C), for which the GI50 is 26.7 nM and the TGI came out at 0.149 µM. Turning to `FC(F)(F)c1ccc(CNc2ccc(Cc3c[nH]c4ncc(Cl)cc34)cn2)cn1`, the GI50 was 5100 nM and 3770 nM; the TGI is 34.4 µM and > 10 µM.

With `CC(C)=NNc1ncnc2c1ncn2C1OC(CO)C(O)C1O` (stereo not drawn), the GI50 was 499 nM and the TGI is 3.9 µM.

`COc1cnc2c(c1)C(=O)c1c-2n(CCCBr)c(=O)c2cc([N+](=O)[O-])ccc12`: the GI50 was 291 nM and the TGI was found to be 0.955 µM.

In the case of `COc1ccc(C(O)c2cc3c(N)c(C(=O)Nc4cccc(OC)c4)sc3nc2C)cc1` (stereo not drawn), the GI50 was 1230 nM and the TGI came out at 4.61 µM.

For the compound `COc1cc(OC)cc(C2C(C#N)=C(N)Oc3c2ccc2ccc(O)cc32)c1` (stereo not drawn), the GI50 is under 10 nM and the TGI was found to be 0.98 µM. For the compound `COCCNCCc1cccc(Nc2ncc3c(n2)-c2ccccc2C(c2ccccc2F)C3)c1` (stereo not drawn), the GI50 was 1900 nM and 2000 nM; the TGI was 3.7 µM and 3.86 µM.

For `c1ccc(CSc2nnc3c4c5c(sc4nc(-c4cccnc4)n23)CCCCCC5)cc1`, the GI50 is 568 nM and the TGI was 4.12 µM.

Turning to `O=C1Nc2ccccc2C1(c1c[nH]c2ccccc12)c1c[nH]c2ccccc12`, the GI50 is 2080 nM and the TGI was 4.56 µM. In the same order, the values of `ClC1=C(Cl)C(Cl)=C(Cl)C1=Cc1ccccc1` are 1310 nM and 2.69 µM. `O=C(NC1CCC(Br)CC1)C1CCCC(S(=O)(=O)NC2CCCCC2)C1` (stereo not drawn): the GI50 was 6440 nM and the TGI stood at 24.9 µM. For `C[C@]12CC[C@H](OC3OC(O)C(O)C(O)C3O)C=C1CCC1C2CC[C@]2(C)[C@@H](c3ccc(=O)oc3)CC[C@]12O` (stereo partly drawn), the GI50 is 3.79 nM and 5.12 nM; the TGI is 0.0202 µM and 0.0145 µM. Turning to `COc1cc(C(C)c2ccc3c(ccn3C)c2)cc(OC)c1OC` (stereo not drawn), the GI50 was under 10 nM and the TGI is 62.1 µM. In the case of `N=C1S/C(=C/c2ccc(-c3ccc4c(c3)C(=O)NC4=O)o2)C(=O)N1c1ccc(Br)cc1`, the GI50 was 4570 nM and the TGI is over 100 µM.

For the compound `O=[N+]([O-])c1ccc2scc3c4ccccc4nc-3c2c1`, the GI50 is 919 nM and the TGI worked out at 2.25 µM. In the same order, the values of `Cc1ccc(C)c(COc2cc(NC(=O)c3ccc4c(c3)OCO4)ccc2N(C)S(C)(=O)=O)c1` are 114 nM and 0.44 µM. `O=c1[nH]c2ccc(N=Cc3c(O)[nH]c4ccccc34)cc2[nH]1`: the GI50 is over 25000 nM and the TGI is over 25 µM. For the compound `COc1ccc(F)cc1/C=C/C(=O)/C=C(/C=C/c1cc(F)ccc1OC)OB(F)F`, the GI50 is 1620 nM and the TGI turned out to be 4.37 µM. Consider `CC(=O)Nc1ccc2c(C3=C(c4cn(C)c5ccccc45)C(=O)NC3=O)cn(C)c2c1`, for which the GI50 is 988 nM and the TGI was over 7.22 µM. For `COc1cccc2cc(N(C)c3ncnc4ccccc34)ccc12`, the GI50 was under 10 nM and the TGI was determined as 4.74 µM. Turning to `Cn1cc(C2=C(c3c4n(c5ccccc35)CCN(C(N)=S)C4)C(=O)NC2=O)c2ccccc21`, the GI50 is 3350 nM and the TGI was over 21 µM. The like results for `FC(F)(F)CNc1nccc(-c2cnn3ncccc23)n1` were, in that order, 8490 nM and over 25 µM.

With `O=C(Nc1ccc(Oc2cccc(Cl)c2)c(Cl)c1)c1cnccn1`, the GI50 was 255 nM and the TGI is over 15.8 µM.

Take `Oc1ccc(CCl)c2cccnc12`: the GI50 is 3390 nM and the TGI amounted to 54.3 µM. The like results for `Cc1nc2ccccc2c(/C=C/c2ccc(Cl)cc2)c1C(=O)/C=C/c1ccc(F)cc1` were, in that order, 1800 nM and 3.73 µM.

For `COc1cc(-c2nn(-c3ccc(NC(=O)NCCCNC(=O)c4ccccc4)cc3)cc2-c2ccncc2)ccc1Cl`, the GI50 is 284 nM and the TGI came out at 0.827 µM. As for `CCN(CC)c1ccc2c(cc1=O)[C@@H](NC(C)=O)CCc1cc(OC)c(OC)c(OC)c1-2`, the GI50 is 130 nM. As to `CC/C=C\C/C=C\C[C@H]1C/C=C2/C(=O)C=C[C@@H]2C/C=C\CCC(=O)O1`, the GI50 is 838 nM and the TGI stood at 2.53 µM.

On to `CCCCCc1c(C)[nH]c(/C=C2\N=C(c3ccc[nH]3)C=C2Oc2ccccc2)c1C`, for which the GI50 was 10.4 nM and the TGI was determined as 0.301 µM.

As for `CCn1cc(C(=O)N/N=C/c2ccc(Br)cc2)c(=O)c2cc(F)c(N3CCNC(C)C3)c(F)c21` (stereo not drawn), the GI50 was 1590 nM and the TGI turned out to be 3.09 µM.

Consider `O=C(O)c1sccc1O`, for which the GI50 is 32900 nM and the TGI was over 100 µM.

As for `CCC[C@H](N[C@H]1CCc2cc(F)cc(F)c2C1)C(=O)Nc1cn(C(C)(C)CNCC(C)(C)C)cn1`, the TGI is 74.6 µM and 21.1 µM. For `O=C(CNc1c(Cl)cccc1Cl)Nc1ccc(-c2nc3ccccc3s2)cc1`, the GI50 was 38.1 nM and the TGI was determined as 0.219 µM. The like results for `Nc1c(C(=O)Nc2ccccn2)sc2nc3c(cc12)CCCCC3` were, in that order, 1050 nM and over 50 µM.
